Data as given in paper PMC7309225, “Synthesis, Biodistribution, and Radiation Dosimetry of a Novel mGluR5 Radioligand: ^18F-AZD9272” (ACS Chemical Neuroscience, 2020).

Tested on: mGluR5
Assay: Brain PET in cynomolgus monkey (HRRT), VT by 2TC model and Logan GA
Assay type: in vivo
Experimental: Two male cynomolgus monkeys (NHP1: 5460 g and NHP2: 7080 g) were used in this study. […] Anesthesia was induced by intramuscular injection of ketamine hydrochloride (approximately 10 mg/kg) at AFL and maintained by intravenous infusion of ketamine (4 mg/kg/h) and xylazine (0.4 mg/kg/h) with a pump. The NHP head was immobilized with a fixation device. […] Heart rate, blood pressure, respiratory rate, and oxygen saturation were continuously monitored throughout the experiments. Fluid balance was maintained by continuous infusion of saline.
PET measurements were conducted using a High Resolution Research Tomograph (HRRT) PET scanner (Siemens Molecular Imaging, Knoxville, TN). […] List-mode data were reconstructed with a series of 34 frames (20 s × 9, 1 min × 3, 3 min × 5, and 6 min × 17), using the ordinary Poisson-3D-ordered subset expectation maximization (OP-3D-OSEM) algorithm with 10 iterations and 16 subsets including modeling of the point spread function (PSF).
An automated blood sampling system (ABSS) was used to measure the continuous radioactivity for the first 3 min after the radioligand injection. Then, blood sampling was performed manually for the measurement of metabolism and radioactivity at 5, 15, 30, 60, 90, and 120 min after the injection. A reversed-phase radio-HPLC method was used to determine the amount of unchanged ^18F-AZD9272 and its radioactive metabolites in NHP plasma.[35]
The regions of interest (ROIs) were delineated manually on the MRI images of each NHP for the anterior cingulate cortex, amygdala, caudate, cerebellum, hippocampus, insular cortex, occipital cortex, prefrontal cortex, putamen, temporal cortex, thalamus, ventral midbrain, and ventral striatum. The MRI of the individual NHP was co-registered to summed PET images of the whole measurement. By applying the co-registration parameters to ROIs, the time–activity curves of brain regions were generated from dynamic PET data.
As the main outcome measure, the total distribution volume (VT) defined as (K1/k2)(k3/k4 + 1) by the two tissue compartment (2TC) model and Logan graphical analysis (GA) was calculated with the metabolite corrected plasma radioactivity as the input function. […] The procedure has been described in detail in a previous publication on [^11C]AZD9272 binding.[33]

SMILES: N#Cc1cc(F)cc(-c2nc(-c3ccc([18F])cn3)no2)c1 [^18F-AZD9272, 3-fluoro-5-(3-(5-[^18F]fluoropyridin-2-yl)-1,2,4-oxadiazol-5-yl)benzonitrile]
- VT (ACC anterior cingulate cortex, 2TC, NHP1): 11.5 mL/cm^3
- VT (ACC anterior cingulate cortex, 2TC, NHP2): 11.2 mL/cm^3
- VT (ACC anterior cingulate cortex, 2TC, mean): 11.4 mL/cm^3
- VT (ACC anterior cingulate cortex, GA, NHP1): 10.2 mL/cm^3
- VT (ACC anterior cingulate cortex, GA, NHP2): 10.7 mL/cm^3
- VT (ACC anterior cingulate cortex, GA, mean): 10.4 mL/cm^3
- VT (AMG amygdala, 2TC, NHP1): 15.0 mL/cm^3
- VT (AMG amygdala, 2TC, NHP2): 14.4 mL/cm^3
- VT (AMG amygdala, 2TC, mean): 14.7 mL/cm^3
- VT (AMG amygdala, GA, NHP1): 12.8 mL/cm^3
- VT (AMG amygdala, GA, NHP2): 13.1 mL/cm^3
- VT (AMG amygdala, GA, mean): 13.0 mL/cm^3
- VT (CAU caudate, 2TC, NHP1): 13.3 mL/cm^3
- VT (CAU caudate, 2TC, NHP2): 13.7 mL/cm^3
- VT (CAU caudate, 2TC, mean): 13.5 mL/cm^3
- VT (CAU caudate, GA, NHP1): 12.1 mL/cm^3
- VT (CAU caudate, GA, NHP2): 13.0 mL/cm^3
- VT (CAU caudate, GA, mean): 12.6 mL/cm^3
- VT (CER cerebellum, 2TC, NHP1): 7.1 mL/cm^3
- VT (CER cerebellum, 2TC, NHP2): 7.9 mL/cm^3
- VT (CER cerebellum, 2TC, mean): 7.5 mL/cm^3
- VT (CER cerebellum, GA, NHP1): 6.6 mL/cm^3
- VT (CER cerebellum, GA, NHP2): 7.6 mL/cm^3
- VT (CER cerebellum, GA, mean): 7.1 mL/cm^3
- VT (HIP hippocampus, 2TC, NHP1): 10.7 mL/cm^3
- VT (HIP hippocampus, 2TC, NHP2): 11.9 mL/cm^3
- VT (HIP hippocampus, 2TC, mean): 11.3 mL/cm^3
- VT (HIP hippocampus, GA, NHP1): 9.7 mL/cm^3
- VT (HIP hippocampus, GA, NHP2): 11.2 mL/cm^3
- VT (HIP hippocampus, GA, mean): 10.5 mL/cm^3
- VT (INS insular cortex, 2TC, NHP1): 9.0 mL/cm^3
- VT (INS insular cortex, 2TC, NHP2): 10.0 mL/cm^3
- VT (INS insular cortex, 2TC, mean): 9.5 mL/cm^3
- VT (INS insular cortex, GA, NHP1): 8.5 mL/cm^3
- VT (INS insular cortex, GA, NHP2): 9.6 mL/cm^3
- VT (INS insular cortex, GA, mean): 9.1 mL/cm^3
- Regional brain uptake (PET) (NHP brain): highest in the striatum, lower in the thalamus and frontal cortex, and lowest in the cerebellum and occipital cortex
- VT (OC occipital cortex, 2TC, NHP1): 5.4 mL/cm^3
- VT (OC occipital cortex, 2TC, NHP2): 6.0 mL/cm^3
- VT (OC occipital cortex, 2TC, mean): 5.7 mL/cm^3
- VT (OC occipital cortex, GA, NHP1): 5.5 mL/cm^3
- VT (OC occipital cortex, GA, NHP2): 5.7 mL/cm^3
- VT (OC occipital cortex, GA, mean): 5.6 mL/cm^3
- VT (PFC prefrontal cortex, 2TC, NHP1): 9.6 mL/cm^3
- VT (PFC prefrontal cortex, 2TC, NHP2): 9.5 mL/cm^3
- VT (PFC prefrontal cortex, 2TC, mean): 9.5 mL/cm^3
- VT (PFC prefrontal cortex, GA, NHP1): 8.9 mL/cm^3
- VT (PFC prefrontal cortex, GA, NHP2): 9.3 mL/cm^3
- VT (PFC prefrontal cortex, GA, mean): 9.1 mL/cm^3
- VT (PUT putamen, 2TC, NHP1): 9.5 mL/cm^3
- VT (PUT putamen, 2TC, NHP2): 10.7 mL/cm^3
- VT (PUT putamen, 2TC, mean): 10.1 mL/cm^3
- VT (PUT putamen, GA, NHP1): 9.3 mL/cm^3
- VT (PUT putamen, GA, NHP2): 10.1 mL/cm^3
- VT (PUT putamen, GA, mean): 9.7 mL/cm^3
- VT (TC temporal cortex, 2TC, NHP1): 7.6 mL/cm^3
- VT (TC temporal cortex, 2TC, NHP2): 8.4 mL/cm^3
- VT (TC temporal cortex, 2TC, mean): 8.0 mL/cm^3
- VT (TC temporal cortex, GA, NHP1): 7.2 mL/cm^3
- VT (TC temporal cortex, GA, NHP2): 8.1 mL/cm^3
- VT (TC temporal cortex, GA, mean): 7.7 mL/cm^3
- VT (THA thalamus, 2TC, NHP1): 11.7 mL/cm^3
- VT (THA thalamus, 2TC, NHP2): 11.4 mL/cm^3
- VT (THA thalamus, 2TC, mean): 11.6 mL/cm^3
- VT (THA thalamus, GA, NHP1): 10.6 mL/cm^3
- VT (THA thalamus, GA, NHP2): 10.8 mL/cm^3
- VT (THA thalamus, GA, mean): 10.7 mL/cm^3
- VT (VM ventral midbrain, 2TC, NHP1): 11.0 mL/cm^3
- VT (VM ventral midbrain, 2TC, NHP2): 8.9 mL/cm^3
- VT (VM ventral midbrain, 2TC, mean): 9.9 mL/cm^3
- VT (VM ventral midbrain, GA, NHP1): 9.1 mL/cm^3
- VT (VM ventral midbrain, GA, NHP2): 8.4 mL/cm^3
- VT (VM ventral midbrain, GA, mean): 8.8 mL/cm^3
- VT (VST ventral striatum, 2TC, NHP1): 17.3 mL/cm^3
- VT (VST ventral striatum, 2TC, NHP2): 17.3 mL/cm^3
- VT (VST ventral striatum, 2TC, mean): 17.3 mL/cm^3
- VT (VST ventral striatum, GA, NHP1): 14.5 mL/cm^3
- VT (VST ventral striatum, GA, NHP2): 15.6 mL/cm^3
- VT (VST ventral striatum, GA, mean): 15.1 mL/cm^3
- Maximum whole brain radioactivity concentration (two cynomolgus monkeys (n = 2), i.v.): 4.9–6.7 % of the injected dose
